Laboratory results from US20150105252A1, “SUBSTITUTED PYRAZOLES AS HERBICIDES” (E I DU PONT DE NEMOURS AND COMPANY, priority 2013, published 2015).

Legend:
lambsquarters = assay: Test C postemergence; type: in vivo, Chenopodium album; conditions: for Plant response rating (scale of 0 to 100 where 0 is no effect and 100 is complete control), Lambsquarters: Postemergence, 31 g ai/ha, visually evaluated after 13 to 15 days; for Lambsquarters plant response rating / Plant response rating, Lambsquarters: postemergence; for Lambsquarters plant response rating: 62 g ai/ha, scale 0 to 100
Procedure, shortened: (§1)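 Herbicidal effect is expressed as percent visual control (0–100) judged against untreated plants 13 to 15 days after treatment in the greenhouse. Preemergence pots contained seeds in a soil–sand blend; postemergence plants, 2–18 cm tall, grew in peat-based planting medium.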

ryegrass, Italian [1] = assay: Test C postemergence; type: in vivo, Lolium multiflorum; conditions: postemergence
Procedure, shortened: as §1

sedge, umbrella = assay: Test B flood; type: in vivo, Cyperus difformis; conditions: 250 g ai/ha, visual rating on 0 to 100 scale (0 no effect, 100 complete control), 13 to 15 days
Procedure, shortened: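 Plants were grown to the 2-leaf stage and pots flooded to 3 cm above soil. Compounds were applied directly into the paddy water, with depth kept for the test. After 13–15 days in greenhouse, response was rated visually against controls on a 0 (no effect) to 100 (complete control) scale.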

ragweed = assay: Test C preemergence; type: in vivo, Ambrosia elation
Procedure, shortened: as §1

morningglory = assay: Test A preemergence; type: in vivo, Ipomoea spp.; conditions: preemergence, 125 g ai/ha, visual injury approx. 10 days after treatment
Procedure, shortened: (§2)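 Ratings express plant response from 0 (no effect) to 100 (complete control), judged visually against untreated controls after approximately 10 days in the greenhouse. Preemergence applications were made as directed soil sprays onto seeded loam–sand mix, and postemergence applications onto 2–10 cm plants at one- to two-leaf stage.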

corn = assay: Test A preemergence; type: in vivo, Zea mays; conditions: preemergence; for Corn plant response rating (0 to 100 scale): 125 g ai/ha, visual injury approx. 10 days after treatment; for Corn plant response rating: 500 g ai/ha, visual injury after approx. 10 days, 0 to 100 scale (0 no effect, 100 complete control)
Procedure, shortened: as §2

oat, wild = assay: Test C postemergence; type: in vivo, Avena fatua; conditions: for Plant response rating (scale of 0 to 100 where 0 is no effect and 100 is complete control), Oat, Wild: Postemergence, 31 g ai/ha, visually evaluated after 13 to 15 days; for Oat, Wild plant response rating / Plant response rating, Oat, Wild: postemergence; for Oat, Wild plant response rating: 62 g ai/ha, scale 0 to 100
Procedure, shortened: as §1

ryegrass, Italian [2] = assay: Test C preemergence; type: in vivo, Lolium multiflorum
Procedure, shortened: as §1

pigweed [3] = assay: Test C postemergence; type: in vivo, Amaranthus retroflexus; conditions: postemergence; for Pigweed plant response rating: 62 g ai/ha, scale 0 to 100
Procedure, shortened: as §1

soybean = assay: Test C postemergence; type: in vivo, Glycine max; conditions: postemergence; for Plant response rating, Soybean: 250 g ai/ha, scale 0 to 100 (0 no effect, 100 complete control); for Soybean plant response rating: 125 g ai/ha, scale 0 to 100, 0 no effect, 100 complete control
Procedure, shortened: as §1

wheat = assay: Test C preemergence; type: in vivo, Triticum aestivum
Procedure, shortened: as §1

crabgrass, large = assay: Test A postemergence; type: in vivo, Digitaria sanguinalis; conditions: Postemergence
Procedure, shortened: as §2

pigweed [4] = assay: Test A postemergence; type: in vivo, Amaranthus retroflexus; conditions: Postemergence
Procedure, shortened: as §2

[5] = 250 g ai/ha, scale 0 to 100 (0 no effect, 100 complete control)
[6] = 125 g ai/ha, scale 0 to 100, 0 no effect, 100 complete control
[7] = preemergence, 31 g ai/ha, visual rating, scale 0 to 100 (0 no effect, 100 complete control), 13 to 15 days
[8] = preemergence, 62 g ai/ha, scale 0 to 100 (0 no effect, 100 complete control), 13 to 15 days
[9] = preemergence, 125 g ai/ha, 13 to 15 days, scale 0 to 100, 0 = no effect, 100 = complete control
[10] = preemergence, 250 g ai/ha, scale 0 to 100, 0 is no effect, 100 is complete control
[11] = 125 g ai/ha, 0 to 100 scale, 0 no effect, 100 complete control
[12] = 500 g ai/ha, 0 to 100 scale (0 no effect, 100 complete control)
[13] = Preemergence, rate head not shown (block before 16 g ai/ha), scale 0 to 100

CCc1cc(C(=O)NCC(F)(F)F)nn1Cc1ccnc(SC(F)(F)F)c1 [Compound 214]
Plant response rating (scale of 0 to 100 where 0 is no effect and 100 is complete control), Lambsquarters (lambsquarters): 35 | Lambsquarters plant response rating (lambsquarters): 50 | Plant response rating, Lambsquarters (lambsquarters; [5]): 80 | Plant response rating, Lambsquarters (lambsquarters; [6]): 75 | Plant response rating, Ryegrass, Italian (ryegrass, Italian [1]; [5]): 15 | Plant response rating, Ryegrass, Italian (ryegrass, Italian [1]; [6]): 5 | Plant response rating, Sedge, Umbrella (sedge, umbrella): 95 | Ragweed plant response rating (ragweed; [7]): 85 | Ragweed plant response rating (ragweed; [8]): 98 | Plant response rating, Ragweed (ragweed; [9]): 100 | Ragweed plant response rating (ragweed; [10]): 98 | Morningglory plant response rating (0 to 100 scale) (morningglory): 80 | Corn plant response rating (0 to 100 scale) (corn): 10 | Corn plant response rating (corn): 90 | Plant response rating (scale of 0 to 100 where 0 is no effect and 100 is complete control), Oat, Wild (oat, wild): 10 | Oat, Wild plant response rating (oat, wild): 15 | Plant response rating, Oat, Wild (oat, wild; [5]): 40 | Plant response rating, Oat, Wild (oat, wild; [6]): 15 | Ryegrass, Italian plant response rating (ryegrass, Italian [2]; [7]): 5 | Ryegrass, Italian plant response rating (ryegrass, Italian [2]; [8]): 30 | Plant response rating, Ryegrass, Italian (ryegrass, Italian [2]; [9]): 70 | Ryegrass, Italian plant response rating (ryegrass, Italian [2]; [10]): 80 | Pigweed plant response rating (pigweed [3]): 60 | Plant response rating, Pigweed (pigweed [3]; [5]): 85 | Plant response rating, Pigweed (pigweed [3]; [6]): 75 | Plant response rating, Soybean (soybean): 95 | Soybean plant response rating (soybean): 90 | Wheat plant response rating (wheat; [7]): 0 | Wheat plant response rating (wheat; [8]): 0 | Plant response rating, Wheat (wheat; [9]): 10 | Wheat plant response rating (wheat; [10]): 40 | Crabgrass, Large plant response rating (crabgrass, large; [11]): 100 | Crabgrass, Large plant response rating (crabgrass, large; [12]): 100 | Pigweed plant response rating (pigweed [4]; [11]): 100 | Pigweed plant response rating (pigweed [4]; [12]): 100

CCc1cc(C(=O)NC2CC2)nn1Cc1ccnc(Br)c1 [Compound 220]
Plant response rating (scale of 0 to 100 where 0 is no effect and 100 is complete control), Lambsquarters (lambsquarters): 30 | Lambsquarters plant response rating (lambsquarters): 10 | Plant response rating, Lambsquarters (lambsquarters; [5]): 25 | Plant response rating, Lambsquarters (lambsquarters; [6]): 20 | Plant response rating, Ryegrass, Italian (ryegrass, Italian [1]; [5]): 5 | Plant response rating, Ryegrass, Italian (ryegrass, Italian [1]; [6]): 5 | Plant response rating, Sedge, Umbrella (sedge, umbrella): 70 | Plant response rating, Ragweed (ragweed; [13]): 80 | Ragweed plant response rating (ragweed; [8]): 65 | Plant response rating, Ragweed (ragweed; [9]): 75 | Ragweed plant response rating (ragweed; [10]): 95 | Morningglory plant response rating (0 to 100 scale) (morningglory): 20 | Corn plant response rating (0 to 100 scale) (corn): 0 | Corn plant response rating (corn): 90 | Plant response rating (scale of 0 to 100 where 0 is no effect and 100 is complete control), Oat, Wild (oat, wild): 0 | Oat, Wild plant response rating (oat, wild): 5 | Plant response rating, Oat, Wild (oat, wild; [5]): 15 | Plant response rating, Oat, Wild (oat, wild; [6]): 10 | Plant response rating, Ryegrass, Italian (ryegrass, Italian [2]; [13]): 0 | Ryegrass, Italian plant response rating (ryegrass, Italian [2]; [8]): 0 | Plant response rating, Ryegrass, Italian (ryegrass, Italian [2]; [9]): 5 | Ryegrass, Italian plant response rating (ryegrass, Italian [2]; [10]): 5 | Pigweed plant response rating (pigweed [3]): 25 | Plant response rating, Pigweed (pigweed [3]; [5]): 60 | Plant response rating, Pigweed (pigweed [3]; [6]): 40 | Plant response rating, Soybean (soybean): 75 | Soybean plant response rating (soybean): 30 | Plant response rating, Wheat (wheat; [13]): 10 | Wheat plant response rating (wheat; [8]): 0 | Plant response rating, Wheat (wheat; [9]): 15 | Wheat plant response rating (wheat; [10]): 0 | Crabgrass, Large plant response rating (crabgrass, large; [11]): 90 | Crabgrass, Large plant response rating (crabgrass, large; [12]): 100 | Pigweed plant response rating (pigweed [4]; [11]): 90 | Pigweed plant response rating (pigweed [4]; [12]): 100
